In patent US20080090805A1, “CB-1 MODULATING COMPOUNDS AND THEIR USE” (ACADIA PHARMACEUTICALS INC., priority 2005, published 2008):
Where two headings read alike, the source gives them in different places.

Target: CB1 (mutant) (Homo sapiens, UniProt P21554)
Assay: R-SAT functional receptor assay, CB1 (mutant, truncated after amino acid 417)
Format: cell-based
Conditions: R-SAT CB1; for IC50 / pIC50: receptor form (mutant or wild-type) not stated; for Emax / % Inhibition: receptor form not stated, relative to SR141716 (100%); for Emax: read-out: % Inhibition
[1] = Appendix A, read-out: pIC50 (converted)

Sequence of CB1 (mutant) (P21554 1-417, change not shown): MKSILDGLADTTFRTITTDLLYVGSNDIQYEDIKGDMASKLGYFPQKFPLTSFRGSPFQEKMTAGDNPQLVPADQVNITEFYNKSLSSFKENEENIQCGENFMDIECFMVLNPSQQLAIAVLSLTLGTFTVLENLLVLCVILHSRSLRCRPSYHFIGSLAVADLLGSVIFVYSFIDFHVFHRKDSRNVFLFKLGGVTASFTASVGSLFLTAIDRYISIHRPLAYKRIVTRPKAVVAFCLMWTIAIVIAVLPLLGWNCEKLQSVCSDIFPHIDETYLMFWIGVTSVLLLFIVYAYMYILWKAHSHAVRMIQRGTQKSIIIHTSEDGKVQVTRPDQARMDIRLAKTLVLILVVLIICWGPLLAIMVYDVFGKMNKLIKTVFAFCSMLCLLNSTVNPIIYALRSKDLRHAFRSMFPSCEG

| SMILES | IC50 [1] [nM] | Emax (Appendix A) [%] | IC50 (pIC50, Appendix A) [nM] | pIC50 (Appendix A) | % Inhibition (Appendix A) [%] |
| --- | --- | --- | --- | --- | --- |
| CCCCNC(=O)c1ccc2c(c1)N=C(c1ccc(Cl)cc1)c1ccccc1[S+]2[O-] (stereo not drawn) [drawing 666] | 63.1 | 97 |  |  |  |
| O=C(NCCC(F)(F)F)c1ccc2c(c1)N=C(c1ccc(Cl)cc1F)c1ccccc1S2 [drawing 667] | 6.31 | 100 |  |  |  |
| O=C(NCc1cccnc1)c1ccc2c(c1)N=C(c1ccc(Cl)c(Cl)c1)c1ccccc1S2 [drawing 669] | 6.31 | 107 |  |  |  |
| O=C(NCc1cccc(Cl)c1)c1ccc2c(c1)N=C(c1ccc(F)cc1)c1ccccc1[S+]2[O-] (stereo not drawn) [drawing 670] |  | 89 |  |  |  |
| CC(C)CCNC(=O)c1ccc2c(c1)N=C(c1cccc(F)c1)c1ccccc1S2 [drawing 671] |  | 100 | 6.31 |  |  |
| O=C(NC1CCCC1)c1ccc2c(c1)N=C(c1ccc(Cl)c(Cl)c1)c1ccccc1S2 [drawing 672] | 63.1 | 95 |  |  |  |
| O=C(NCCc1ccc(Cl)cc1)c1ccc2c(c1)N=C(c1ccc(F)cc1)c1ccccc1S2 [drawing 673] | 6.31 | 107 |  |  |  |
| CC(NC(=O)c1ccc2c(c1)N=C(C1CCCCC1)c1ccccc1S2)c1ccccc1 (stereo not drawn) [drawing 674] |  |  |  | 7.2 | 113 |
| CCCNC(=O)c1ccc2c(c1)N=C(c1ccc(Cl)s1)c1ccccc1S2 [drawing 675] | 6.31 | 88 |  |  |  |
| CCOC(=O)N1CCC(NC(=O)c2ccc3c(c2)N=C(c2ccc(Cl)cc2)c2ccccc2S3)CC1 [drawing 676] | 63.1 |  |  |  | 105 |
| CC(C)CNC(=O)c1ccc2c(c1)N=C(c1ccc(F)cc1)c1ccccc1S2 [drawing 677] | 6.31 | 107 |  |  |  |
| O=C(NNCC(F)(F)F)c1ccc2c(c1)N=C(c1cccc(Cl)c1)c1ccccc1S2 [drawing 678] | 63.1 | 99 |  |  |  |
| O=C(NCc1cccc(Cl)c1)c1ccc2c(c1)N=C(N1CCC(F)CC1)c1ccccc1S2 [drawing 679] | 6.31 | 108 |  |  |  |
| O=C(NN1CCCCC1)c1ccc2c(c1)N=C(c1ccc(F)cc1)c1ccccc1S2 [drawing 680] |  | 84 |  |  |  |
| O=C(NCc1ccccc1)c1ccc2c(c1)N=C(N1CCCCC1)c1ccccc1S2 [drawing 681] | 6.31 | 110 |  |  |  |
| CCCCNC(=O)c1ccc2c(c1)N=C(N1CCCCC1)c1ccccc1S2 [drawing 683] | 6.31 | 99 |  |  |  |
| Cc1ccsc1C1=Nc2cc(C(=O)NC(C)C)ccc2Sc2ccccc21 [drawing 684] | 63.1 | 95 |  |  |  |
| Cc1ccsc1C1=Nc2cc(C(=O)NCc3cccs3)ccc2Sc2ccccc21 [drawing 685] | 6.31 | 114 |  |  |  |
| O=C(NCc1cccnc1)c1ccc2c(c1)N=C(c1ccc(Cl)c(Cl)c1)c1ccccc1S2 [drawing 687] |  |  |  | 8.2 | 114 |
| O=C(NCc1ccco1)c1ccc2c(c1)N=C(c1ccc(F)cc1)c1ccccc1S2 [drawing 689] | 6.31 | 104 |  |  |  |
| O=C(NCc1ccco1)c1ccc2c(c1)N=C(c1ccc(Cl)c(Cl)c1)c1ccccc1S2 [drawing 691] | 6.31 | 97 |  |  |  |
| O=C(NCc1ccco1)c1ccc2c(c1)N=C(c1cccc(F)c1)c1ccccc1S2 [drawing 693] |  | 104 | 6.31 |  |  |
| Cc1ccsc1C1=Nc2cc(C(=O)NCCc3cccnc3)ccc2Sc2ccccc21 [drawing 694] | 63.1 | 121 |  |  |  |
| O=C(NCc1ccncc1)c1ccc2c(c1)N=C(c1ccc(Cl)cc1)c1ccccc1S2 [drawing 696] | 79.4 | 105 |  |  |  |
| O=C(NN1CCCCCC1)c1ccc2c(c1)N=C(c1cccc(F)c1)c1ccccc1S2 [drawing 697] |  | 106 | 7.94 |  |  |

| SMILES | IC50 [1] [nM] | Emax (Appendix A) [%] | IC50 (pIC50, Appendix A) [nM] | pIC50 (Appendix A) | % Inhibition (Appendix A) [%] |
| --- | --- | --- | --- | --- | --- |
| O=C(NN1CCCC1)c1ccc2c(c1)N=C(c1ccc(Cl)cc1)c1ccccc1S2 [drawing 698] | 79.4 | 100 |  |  |  |
| O=C(NC1CCC(F)(F)CC1)c1ccc2c(c1)N=C(c1cccc(Cl)c1)c1ccccc1S2 [drawing 699] |  | 91 | 7.94 |  |  |
| O=C(NCc1ccccc1Br)c1ccc2c(c1)N=C(c1ccccc1)c1ccccc1S2 [drawing 700] | 79.4 | 83 |  |  |  |
| O=C(NCc1cccc(Cl)c1)c1ccc2c(c1)N=C(c1ccc(F)cc1)c1ccccc1S2 [drawing 701] | 7.94 | 103 |  |  |  |
| O=C(NC1CCCC1)c1ccc2c(c1)N=C(c1cccc(Cl)c1)c1ccccc1S2 [drawing 702] | 79.4 | 96 |  |  |  |
| CC(C)CNC(=O)c1ccc2c(c1)N=C(c1ccc(Cl)s1)c1ccc(F)cc1S2 [drawing 703] | 7.94 | 117 |  |  |  |
| O=C(NCCC(F)(F)F)c1ccc2c(c1)N=C(c1ccc(Cl)cc1)c1ccccc1S2 [drawing 705] |  | 91 | 7.94 |  |  |
| COc1cccc(C2=Nc3cc(C(=O)NCCC(F)(F)F)ccc3Sc3ccccc32)n1 [drawing 707] | 7.94 | 104 |  |  |  |
| CCCCNC(=O)c1ccc2c(c1)N=C(c1ccc(F)cn1)c1ccccc1S2 [drawing 709] | 7.94 | 101 |  |  |  |
| CC(C)CNC(=O)c1ccc2c(c1)N=C(c1ccc(F)cn1)c1ccccc1S2 [drawing 711] | 7.94 | 113 |  |  |  |
| COc1ccc(C2=Nc3cc(C(=O)NCc4cccnc4)ccc3Sc3ccccc32)cc1 [drawing 712] | 79.4 | 106 |  |  |  |
| CCN(CCNC(=O)c1ccc2c(c1)N=C(c1cccc(Cl)c1)c1ccccc1S2)c1ccccc1 [drawing 713] |  | 97 | 7.94 |  |  |
| O=C(NCc1ccc(F)cc1)c1ccc2c(c1)N=C(c1cccc(Cl)c1)c1ccccc1S2 [drawing 715] |  | 97 | 7.94 |  |  |
| O=C(NCc1ccncc1)c1ccc2c(c1)N=C(c1ccc(F)cc1)c1ccccc1S2 [drawing 716] | 79.4 | 101 |  |  |  |
| O=C(NCc1ccccc1)c1ccc2c(c1)N=C(c1cccc(Cl)c1)c1ccccc1S2 [drawing 717] | 7.94 | 106 |  |  |  |
| CCCCNC(=O)c1ccc2c(c1)N=C(c1cccc(F)c1)c1ccccc1S2 [drawing 719] | 7.94 | 113 |  |  |  |
| O=C(NC1CCCC1)c1ccc2c(c1)N=C(c1ccc(F)cc1)c1ccccc1S2 [drawing 720] |  | 117 | 79.4 |  |  |
| O=C(NN1CCCCCC1)c1ccc2c(c1)N=C(c1cccc(Cl)c1)c1ccccc1S2 [drawing 721] | 7.94 |  |  |  | 105 |
| O=C(NN1CCCCC1)c1ccc2c(c1)N=C(c1cccc(Br)c1)c1ccccc1S2 [drawing 723] |  | 92 | 7.94 |  |  |
| C[C@@H]1CCC[C@H](C)N1NC(=O)c1ccc2c(c1)N=C(c1cccc(F)c1)c1ccccc1S2 [drawing 727] | 7.94 | 120 |  |  |  |
| COc1ccc(C2=Nc3cc(C(=O)NCc4ccncc4)ccc3Sc3ccccc32)cc1 [drawing 728] | 79.4 | 105 |  |  |  |
| CC(CNC(=O)c1ccc2c(c1)N=C(c1ccccc1)c1ccccc1S2)c1ccccc1 (stereo not drawn) [drawing 729] | 7.94 | 101 |  |  |  |
| COc1ccc(C2=Nc3cc(C(=O)NN4[C@H](C)CCC[C@@H]4C)ccc3Sc3ccccc32)cc1 [drawing 730] | 79.4 | 99 |  |  |  |
| O=C(NCCc1ccccc1)c1ccc2c(c1)N=C(c1cccc(Cl)c1)c1ccccc1S2 [drawing 731] |  | 104 | 7.94 |  |  |
